Measured values: patent publication US9464056B2, “Fungicidal 4-methylanilino pyrazoles” (E. I. DU PONT DE NEMOURS AND COMPANY, priority 2012, dated 2016)

Assays:
[1] = system: Puccinia recondita f. sp. tritici; test: Test E1: curative spray on wheat seedlings after inoculation, Puccinia recondita f. sp. tritici (wheat leaf rust), visual disease rating; type: in vivo; conditions: sprayed after inoculation (curative), 100 = 100% disease control, 0 = no disease control relative to controls
Source text: (§1) General protocol for preparing test suspensions for Tests A-H: the test compounds were first dissolved in acetone in an amount equal to 3% of the final volume and then suspended at the desired concentration (in ppm) in acetone and purified water (50/50 mix by volume) containing 250 ppm of the surfactant Trem® 014 (polyhydric alcohol esters). The resulting test suspensions were then used in Tests A-F. Spraying a 40 ppm test suspension to the point of run-off on the test plants was the equivalent of a rate of 160 g/ha. Unless otherwise indicated, the rating values indicate a 40 ppm test suspension was used. Wheat seedlings were inoculated with a spore suspension of Puccinia recondita f. sp. tritici (the causal agent of wheat leaf rust) and incubated in a saturated atmosphere at 20° C. for 24 h, and then moved to a growth chamber at 20° C. for 2 days. After 2 days, the test suspension was sprayed to the point of run-off on the wheat seedlings, and then the seedlings were moved back to the growth chamber at 20° C. for 4 days. Upon removal, visual disease ratings were made. Results for Tests A-F are given in Table A. In the Table, a rating of 100 indicates 100% disease control and a rating of 0 indicates no disease control (relative to the controls). A dash (-) indicates no test results.

[2] = system: Septoria nodorum; test: Test C: preventive spray on wheat seedlings, Septoria nodorum (Septoria glume blotch), visual disease rating; type: in vivo; conditions: Parastagonospora nodorum, topical, 264 h, 100 = 100% disease control, 0 = no disease control relative to controls
Source text: as §1, with “The test suspension was sprayed to the point of run-off on wheat seedlings. The following day the” for “Wheat”, “Septoria nodorum” for “Puccinia recondita f. sp. tritici”, “Septoria glume blotch)” for “wheat leaf rust)”, “48” for “24”, “9” for “2 days. After 2”, “after which time” for “the test suspension was sprayed to the point of run-off on the wheat seedlings, and then the seedlings were moved back to the growth chamber at 20° C. for 4 days. Upon removal,”

[3] = system: Botrytis cinerea; test: Test A: preventive spray on tomato seedlings, Botrytis cinerea (tomato Botrytis), visual disease rating; type: in vivo; conditions: 100 = 100% disease control, 0 = no disease control relative to controls
Source text: as §1, with “The” for “Wheat seedlings were inoculated with a spore suspension of Puccinia recondita f. sp. tritici (the causal agent of wheat leaf rust) and incubated in a saturated atmosphere at 20° C. for 24 h, and then moved to a growth chamber at 20° C. for 2 days. After 2 days, the”, “tomato seedlings. The following day” for “the wheat seedlings, and then”, “inoculated with a spore suspension of Botrytis cinerea (the causal agent of tomato Botrytis) and incubated in saturated atmosphere” for “moved back to the growth chamber”, “48 h, and then moved to a growth chamber at 27° C. for 3 days, after which time” for “4 days. Upon removal,”

[4] = system: Blumeria graminis f. sp. tritici; test: Test F: preventive spray on wheat seedlings, Blumeria graminis f. sp. tritici (wheat powdery mildew), visual disease rating; type: in vivo; conditions: topical, 192 h, 100 = 100% disease control, 0 = no disease control relative to controls
Source text: General protocol for preparing test suspensions for Tests A-H: the test compounds were first dissolved in acetone in an amount equal to 3% of the final volume and then suspended at the desired concentration (in ppm) in acetone and purified water (50/50 mix by volume) containing 250 ppm of the surfactant Trem® 014 (polyhydric alcohol esters). The resulting test suspensions were then used in Tests A-F. Spraying a 40 ppm test suspension to the point of run-off on the test plants was the equivalent of a rate of 160 g/ha. Unless otherwise indicated, the rating values indicate a 40 ppm test suspension was used. The test suspension was sprayed to the point of run-off on wheat seedlings. The following day the seedlings were inoculated with a spore dust of Blumeria graminis f. sp. tritici (also known as Erysiphe graminis f. sp. tritici, the causal agent of wheat powdery mildew) and incubated in a growth chamber at 20° C. for 8 days, after which time visual disease ratings were made. Results for Tests A-F are given in Table A. In the Table, a rating of 100 indicates 100% disease control and a rating of 0 indicates no disease control (relative to the controls). A dash (-) indicates no test results.

[5] = system: Alternaria solani; test: Test B: preventive spray on tomato seedlings, Alternaria solani (tomato early blight), visual disease rating; type: in vivo; conditions: 100 = 100% disease control, 0 = no disease control relative to controls
Source text: General protocol for preparing test suspensions for Tests A-H: the test compounds were first dissolved in acetone in an amount equal to 3% of the final volume and then suspended at the desired concentration (in ppm) in acetone and purified water (50/50 mix by volume) containing 250 ppm of the surfactant Trem® 014 (polyhydric alcohol esters). The resulting test suspensions were then used in Tests A-F. Spraying a 40 ppm test suspension to the point of run-off on the test plants was the equivalent of a rate of 160 g/ha. Unless otherwise indicated, the rating values indicate a 40 ppm test suspension was used. The test suspension was sprayed to the point of run-off on tomato seedlings. The following day the seedlings were inoculated with a spore suspension of Alternaria solani (the causal agent of tomato early blight) and incubated in a saturated atmosphere at 27° C. for 48 h, and then moved to a growth chamber at 24° C. for 5 days, after which time visual disease ratings were made. Results for Tests A-F are given in Table A. In the Table, a rating of 100 indicates 100% disease control and a rating of 0 indicates no disease control (relative to the controls). A dash (-) indicates no test results.

With `Cc1cc(F)c(Nc2c(-c3ccc(F)cc3Cl)c(C)nn2C)c(Br)c1` [Compound 1, N-(2-bromo-6-fluoro-4-methylphenyl)-4-(2-chloro-4-fluorophenyl)-1,3-dimethyl-1H-pyrazol-5-amine] the melting point was 132 to 133 °C, the “Test E1 rating (% disease control)” value [1] was 100 and the pest or weed control at 40 µg/mL [2] was 90%. The pest or weed control at 40 µg/mL [3] was 100%, the pest or weed control at 40 µg/mL [4] was 100% and the “Test B rating (% disease control)” value [5] was 99.
